According to ChEMBL document CHEMBL5678818, “Discovery of potent SOS1 inhibitors that block RAS activation via disruption of the RAS-SOS1 interaction” (Proc Natl Acad Sci U S A, 2019):

Assays:
[1] = target: T1, Serine/threonine-protein kinase 36 (Homo sapiens) (UniProt Q9NRP7); test: Inhibition of STK36 (unknown origin) assessed as residual activity at 1000 nM by KINOMEscan analysis relative to control
T1 sequence (whole entry): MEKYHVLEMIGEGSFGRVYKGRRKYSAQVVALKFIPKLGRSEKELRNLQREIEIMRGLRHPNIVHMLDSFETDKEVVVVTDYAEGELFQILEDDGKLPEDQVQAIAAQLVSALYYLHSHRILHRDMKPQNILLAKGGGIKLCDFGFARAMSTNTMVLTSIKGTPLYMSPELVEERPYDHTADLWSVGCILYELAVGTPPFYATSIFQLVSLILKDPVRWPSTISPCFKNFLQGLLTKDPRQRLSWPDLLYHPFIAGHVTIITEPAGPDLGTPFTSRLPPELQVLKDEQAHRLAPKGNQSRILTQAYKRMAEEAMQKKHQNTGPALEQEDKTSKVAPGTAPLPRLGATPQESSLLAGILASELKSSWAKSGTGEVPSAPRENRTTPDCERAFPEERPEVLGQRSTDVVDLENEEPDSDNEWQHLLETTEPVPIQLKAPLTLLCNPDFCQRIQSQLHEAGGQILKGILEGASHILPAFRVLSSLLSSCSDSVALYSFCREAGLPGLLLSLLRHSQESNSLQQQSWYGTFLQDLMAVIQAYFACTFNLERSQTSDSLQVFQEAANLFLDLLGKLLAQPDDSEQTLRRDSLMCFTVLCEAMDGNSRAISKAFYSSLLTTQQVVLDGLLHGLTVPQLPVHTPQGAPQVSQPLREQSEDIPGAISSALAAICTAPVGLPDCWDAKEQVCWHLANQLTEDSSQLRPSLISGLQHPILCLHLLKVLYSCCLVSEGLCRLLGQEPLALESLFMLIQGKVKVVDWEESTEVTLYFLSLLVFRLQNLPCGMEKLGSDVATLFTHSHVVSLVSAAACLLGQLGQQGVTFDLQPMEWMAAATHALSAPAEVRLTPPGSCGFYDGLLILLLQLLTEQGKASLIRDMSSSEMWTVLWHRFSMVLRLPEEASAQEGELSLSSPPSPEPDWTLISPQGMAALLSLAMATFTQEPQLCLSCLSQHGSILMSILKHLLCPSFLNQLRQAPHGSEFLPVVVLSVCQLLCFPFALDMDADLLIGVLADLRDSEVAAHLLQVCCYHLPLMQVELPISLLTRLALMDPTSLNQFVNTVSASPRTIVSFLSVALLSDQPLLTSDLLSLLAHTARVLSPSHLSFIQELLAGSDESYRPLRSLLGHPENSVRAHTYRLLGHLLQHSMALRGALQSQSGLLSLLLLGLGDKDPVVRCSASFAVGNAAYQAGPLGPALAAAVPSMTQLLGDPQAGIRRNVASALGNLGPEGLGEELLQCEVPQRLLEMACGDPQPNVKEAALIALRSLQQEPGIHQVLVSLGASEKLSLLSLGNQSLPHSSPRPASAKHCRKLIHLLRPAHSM

[2] = target: Serine/threonine-protein kinase 38 (Homo sapiens) (UniProt Q15208); test: Inhibition of NDR1 (unknown origin) assessed as residual activity at 1000 nM by KINOMEscan analysis relative to control
[3] = target: 5'-AMP-activated protein kinase catalytic subunit alpha-1 (Homo sapiens) (UniProt Q13131); test: Inhibition of AMPK-alpha1 (unknown origin) assessed as residual activity at 1000 nM by KINOMEscan analysis relative to control
[4] = target: T2, Serine/threonine-protein kinase NLK (Homo sapiens) (UniProt Q9UBE8); test: Inhibition of NLK (unknown origin) assessed as residual activity at 1000 nM by KINOMEscan analysis relative to control
T2 sequence (whole entry): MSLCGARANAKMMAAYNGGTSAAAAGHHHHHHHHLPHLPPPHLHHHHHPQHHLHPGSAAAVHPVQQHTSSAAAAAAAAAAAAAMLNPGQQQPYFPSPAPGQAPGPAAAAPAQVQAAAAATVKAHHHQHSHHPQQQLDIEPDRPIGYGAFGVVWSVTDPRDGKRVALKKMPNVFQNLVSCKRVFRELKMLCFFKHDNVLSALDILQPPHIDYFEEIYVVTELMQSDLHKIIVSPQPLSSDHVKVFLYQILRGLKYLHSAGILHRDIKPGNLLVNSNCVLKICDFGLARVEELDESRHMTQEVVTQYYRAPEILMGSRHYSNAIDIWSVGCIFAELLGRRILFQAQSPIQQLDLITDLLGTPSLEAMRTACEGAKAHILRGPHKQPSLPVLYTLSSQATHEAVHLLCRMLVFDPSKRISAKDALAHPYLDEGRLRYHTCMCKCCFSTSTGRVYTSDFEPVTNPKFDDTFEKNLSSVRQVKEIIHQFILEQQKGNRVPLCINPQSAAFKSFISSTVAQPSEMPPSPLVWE

[5] = target: T3, Serine/threonine-protein kinase Sgk2 (Homo sapiens) (UniProt Q9HBY8); test: Inhibition of SGK2 (unknown origin) assessed as residual activity at 1000 nM by KINOMEscan analysis relative to control
T3 sequence (whole entry): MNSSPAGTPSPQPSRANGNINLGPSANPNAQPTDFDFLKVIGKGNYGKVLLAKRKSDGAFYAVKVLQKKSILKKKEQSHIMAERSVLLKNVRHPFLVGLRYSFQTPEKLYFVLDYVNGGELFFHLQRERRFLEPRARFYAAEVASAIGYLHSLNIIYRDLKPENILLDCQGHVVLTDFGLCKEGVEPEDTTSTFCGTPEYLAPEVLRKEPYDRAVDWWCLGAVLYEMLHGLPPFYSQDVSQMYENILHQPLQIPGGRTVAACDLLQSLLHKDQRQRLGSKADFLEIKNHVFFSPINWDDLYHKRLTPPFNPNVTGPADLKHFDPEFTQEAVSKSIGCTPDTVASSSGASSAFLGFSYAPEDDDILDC

[6] = target: Myosin light chain kinase, smooth muscle (Homo sapiens) (UniProt Q15746); test: Inhibition of MYLK (unknown origin) assessed as residual activity at 1000 nM by KINOMEscan analysis relative to control
[7] = target: Myosin light chain kinase 2, skeletal/cardiac muscle (Homo sapiens) (UniProt Q9H1R3); test: Inhibition of MYLK2 (unknown origin) assessed as residual activity at 1000 nM by KINOMEscan analysis relative to control
[8] = target: Myosin-IIIa (Homo sapiens) (UniProt Q8NEV4); test: Inhibition of MYO3A (unknown origin) assessed as residual activity at 1000 nM by KINOMEscan analysis relative to control
[9] = test system: Epidermal growth factor receptor (Homo sapiens), P00533 [UNDEFINED MUTATION]; test: Inhibition of EGFR S752-I759del mutant (unknown origin) assessed as residual activity at 1000 nM by KINOMEscan analysis relative to control
[10] = target: Cyclin-dependent kinase 5 (Homo sapiens) (UniProt Q00535); test: Inhibition of CDK5 (unknown origin) assessed as residual activity at 1000 nM by KINOMEscan analysis relative to control
Cyclin-dependent kinase 5 (Homo sapiens), sequence (Q00535 whole entry, looked up): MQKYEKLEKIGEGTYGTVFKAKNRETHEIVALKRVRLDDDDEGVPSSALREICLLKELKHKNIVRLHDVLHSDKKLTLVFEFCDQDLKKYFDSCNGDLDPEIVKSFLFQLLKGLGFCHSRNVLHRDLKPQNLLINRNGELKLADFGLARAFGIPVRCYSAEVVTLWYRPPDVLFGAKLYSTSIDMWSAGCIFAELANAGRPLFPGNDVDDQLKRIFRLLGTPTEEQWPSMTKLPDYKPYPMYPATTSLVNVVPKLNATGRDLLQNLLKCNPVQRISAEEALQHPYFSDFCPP

5'-AMP-activated protein kinase catalytic subunit alpha-1 (Homo sapiens), sequence (Q13131 whole entry, looked up): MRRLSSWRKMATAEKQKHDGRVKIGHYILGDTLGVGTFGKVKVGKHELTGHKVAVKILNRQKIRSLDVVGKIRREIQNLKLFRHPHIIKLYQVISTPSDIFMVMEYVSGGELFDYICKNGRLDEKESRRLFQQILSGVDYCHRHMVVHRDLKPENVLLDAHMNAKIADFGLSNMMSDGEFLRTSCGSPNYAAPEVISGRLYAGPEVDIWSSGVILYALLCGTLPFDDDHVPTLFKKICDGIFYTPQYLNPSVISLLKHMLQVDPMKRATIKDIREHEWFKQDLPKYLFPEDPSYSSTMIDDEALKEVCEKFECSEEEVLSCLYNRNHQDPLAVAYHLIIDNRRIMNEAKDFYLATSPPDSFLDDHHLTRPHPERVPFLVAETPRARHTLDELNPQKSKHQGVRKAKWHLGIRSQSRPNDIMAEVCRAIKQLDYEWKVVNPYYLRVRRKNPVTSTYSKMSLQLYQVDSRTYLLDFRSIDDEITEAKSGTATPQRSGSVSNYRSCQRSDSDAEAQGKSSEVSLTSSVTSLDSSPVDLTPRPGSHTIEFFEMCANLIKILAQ
Myosin light chain kinase 2, skeletal/cardiac muscle (Homo sapiens), sequence (Q9H1R3 whole entry): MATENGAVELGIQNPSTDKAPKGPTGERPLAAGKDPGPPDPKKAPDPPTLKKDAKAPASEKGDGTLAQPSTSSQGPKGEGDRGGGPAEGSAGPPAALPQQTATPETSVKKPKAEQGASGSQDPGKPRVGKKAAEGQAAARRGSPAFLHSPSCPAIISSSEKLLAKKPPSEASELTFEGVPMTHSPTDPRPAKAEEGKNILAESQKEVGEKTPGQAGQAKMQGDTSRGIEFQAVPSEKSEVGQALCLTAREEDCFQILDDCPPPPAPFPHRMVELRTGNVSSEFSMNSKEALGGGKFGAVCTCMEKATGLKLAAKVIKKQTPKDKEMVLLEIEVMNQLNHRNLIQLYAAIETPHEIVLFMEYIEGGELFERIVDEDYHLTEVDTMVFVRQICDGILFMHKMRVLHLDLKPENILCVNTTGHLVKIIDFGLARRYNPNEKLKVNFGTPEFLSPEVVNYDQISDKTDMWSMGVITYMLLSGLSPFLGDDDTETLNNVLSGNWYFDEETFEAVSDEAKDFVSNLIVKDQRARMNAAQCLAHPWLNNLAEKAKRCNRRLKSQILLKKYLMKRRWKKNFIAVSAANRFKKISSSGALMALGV
Myosin-IIIa (Homo sapiens), sequence (Q8NEV4 whole entry): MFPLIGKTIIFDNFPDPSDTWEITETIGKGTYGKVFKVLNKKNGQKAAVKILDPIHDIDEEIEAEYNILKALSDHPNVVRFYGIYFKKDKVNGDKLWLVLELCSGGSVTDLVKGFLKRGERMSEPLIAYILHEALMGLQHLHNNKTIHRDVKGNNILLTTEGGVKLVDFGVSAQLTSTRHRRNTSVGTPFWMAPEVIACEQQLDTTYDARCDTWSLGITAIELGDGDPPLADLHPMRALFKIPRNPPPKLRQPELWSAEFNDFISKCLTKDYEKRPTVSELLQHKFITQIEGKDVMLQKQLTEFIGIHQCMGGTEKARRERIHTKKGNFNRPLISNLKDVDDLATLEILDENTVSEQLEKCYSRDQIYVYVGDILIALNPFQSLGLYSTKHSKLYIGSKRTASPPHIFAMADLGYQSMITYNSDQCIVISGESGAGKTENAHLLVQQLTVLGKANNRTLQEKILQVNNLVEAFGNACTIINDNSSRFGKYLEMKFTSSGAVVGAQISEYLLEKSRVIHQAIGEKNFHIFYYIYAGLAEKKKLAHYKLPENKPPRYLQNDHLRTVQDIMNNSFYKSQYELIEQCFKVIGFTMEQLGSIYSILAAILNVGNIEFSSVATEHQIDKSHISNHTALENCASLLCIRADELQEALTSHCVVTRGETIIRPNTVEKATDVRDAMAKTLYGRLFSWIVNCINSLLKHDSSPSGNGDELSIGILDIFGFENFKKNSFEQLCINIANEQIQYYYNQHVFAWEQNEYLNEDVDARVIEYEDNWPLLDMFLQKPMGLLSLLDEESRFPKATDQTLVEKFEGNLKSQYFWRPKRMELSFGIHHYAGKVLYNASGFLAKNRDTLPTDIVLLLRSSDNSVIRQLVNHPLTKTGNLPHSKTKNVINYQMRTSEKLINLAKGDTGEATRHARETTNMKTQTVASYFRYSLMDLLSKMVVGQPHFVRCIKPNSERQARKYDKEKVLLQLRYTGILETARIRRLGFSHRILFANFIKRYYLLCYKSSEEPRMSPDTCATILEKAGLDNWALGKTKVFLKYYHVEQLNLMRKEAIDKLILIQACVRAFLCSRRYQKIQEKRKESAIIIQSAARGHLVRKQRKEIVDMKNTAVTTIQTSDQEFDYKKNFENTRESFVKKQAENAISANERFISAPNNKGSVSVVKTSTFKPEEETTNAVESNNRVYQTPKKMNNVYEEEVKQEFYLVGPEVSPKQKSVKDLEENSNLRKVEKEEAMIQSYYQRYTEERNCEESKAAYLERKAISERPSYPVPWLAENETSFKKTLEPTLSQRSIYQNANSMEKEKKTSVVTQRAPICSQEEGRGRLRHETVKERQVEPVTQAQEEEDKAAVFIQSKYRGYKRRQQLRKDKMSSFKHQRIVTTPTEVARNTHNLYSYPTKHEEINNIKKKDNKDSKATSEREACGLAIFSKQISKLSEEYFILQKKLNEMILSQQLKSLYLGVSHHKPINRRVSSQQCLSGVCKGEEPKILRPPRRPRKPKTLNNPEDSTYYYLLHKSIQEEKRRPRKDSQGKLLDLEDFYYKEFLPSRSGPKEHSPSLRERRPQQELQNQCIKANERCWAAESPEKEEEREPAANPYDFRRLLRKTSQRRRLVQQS
Myosin light chain kinase, smooth muscle (Homo sapiens), sequence (Q15746 whole entry): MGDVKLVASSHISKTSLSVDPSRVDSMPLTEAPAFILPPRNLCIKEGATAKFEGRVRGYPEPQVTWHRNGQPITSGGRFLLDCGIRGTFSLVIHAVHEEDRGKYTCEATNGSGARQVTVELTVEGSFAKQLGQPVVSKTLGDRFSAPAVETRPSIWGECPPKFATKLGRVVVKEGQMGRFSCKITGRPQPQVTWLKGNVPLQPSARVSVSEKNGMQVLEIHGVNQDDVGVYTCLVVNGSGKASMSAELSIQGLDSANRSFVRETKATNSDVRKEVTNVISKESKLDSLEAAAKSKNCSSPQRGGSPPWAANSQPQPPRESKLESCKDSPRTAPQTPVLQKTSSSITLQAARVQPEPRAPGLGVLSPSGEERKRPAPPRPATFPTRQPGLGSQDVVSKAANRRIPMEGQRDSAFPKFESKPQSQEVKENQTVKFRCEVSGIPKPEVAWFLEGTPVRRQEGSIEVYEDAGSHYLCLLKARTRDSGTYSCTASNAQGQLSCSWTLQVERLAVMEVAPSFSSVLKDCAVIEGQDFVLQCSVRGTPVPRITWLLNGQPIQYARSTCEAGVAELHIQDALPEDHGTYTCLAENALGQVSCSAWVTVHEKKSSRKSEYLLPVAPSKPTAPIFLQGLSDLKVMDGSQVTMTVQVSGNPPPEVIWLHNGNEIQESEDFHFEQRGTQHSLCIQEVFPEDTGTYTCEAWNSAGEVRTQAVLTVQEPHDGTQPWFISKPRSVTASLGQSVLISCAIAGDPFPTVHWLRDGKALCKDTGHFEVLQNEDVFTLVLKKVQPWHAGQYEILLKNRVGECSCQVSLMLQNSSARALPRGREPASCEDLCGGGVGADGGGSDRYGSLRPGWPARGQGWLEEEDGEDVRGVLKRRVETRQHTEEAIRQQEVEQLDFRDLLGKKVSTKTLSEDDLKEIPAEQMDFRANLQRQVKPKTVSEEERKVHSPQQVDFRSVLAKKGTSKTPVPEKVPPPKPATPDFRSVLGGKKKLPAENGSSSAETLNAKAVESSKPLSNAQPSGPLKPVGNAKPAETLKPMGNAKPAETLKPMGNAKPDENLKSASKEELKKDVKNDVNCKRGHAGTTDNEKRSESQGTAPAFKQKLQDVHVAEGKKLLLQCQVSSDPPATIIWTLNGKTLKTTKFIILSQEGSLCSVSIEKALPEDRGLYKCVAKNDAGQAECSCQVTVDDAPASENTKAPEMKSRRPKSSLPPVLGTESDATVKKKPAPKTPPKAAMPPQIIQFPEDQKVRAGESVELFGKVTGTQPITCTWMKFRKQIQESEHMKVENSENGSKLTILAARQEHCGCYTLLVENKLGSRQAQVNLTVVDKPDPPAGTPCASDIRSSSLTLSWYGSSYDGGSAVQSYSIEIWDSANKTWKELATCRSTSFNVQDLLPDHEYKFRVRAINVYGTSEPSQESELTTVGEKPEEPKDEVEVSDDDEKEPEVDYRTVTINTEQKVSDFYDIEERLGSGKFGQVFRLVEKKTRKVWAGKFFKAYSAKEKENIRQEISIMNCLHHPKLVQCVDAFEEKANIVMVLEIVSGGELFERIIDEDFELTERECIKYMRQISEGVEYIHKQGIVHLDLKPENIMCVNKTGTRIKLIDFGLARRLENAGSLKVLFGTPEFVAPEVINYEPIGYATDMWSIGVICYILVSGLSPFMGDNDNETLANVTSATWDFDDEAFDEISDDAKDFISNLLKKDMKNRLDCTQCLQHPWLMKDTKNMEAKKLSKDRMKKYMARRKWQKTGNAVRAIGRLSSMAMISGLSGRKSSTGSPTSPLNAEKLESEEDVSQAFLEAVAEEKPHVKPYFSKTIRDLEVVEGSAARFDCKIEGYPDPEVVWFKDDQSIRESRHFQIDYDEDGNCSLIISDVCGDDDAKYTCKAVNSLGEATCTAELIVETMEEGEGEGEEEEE

COc1cc2nc(C)nc(N[C@H](C)c3cccc(-c4cn[nH]c4)c3)c2cc1OC
Activity [1]: 100% | Activity [2]: 64% | Activity [3]: 82% | Activity [4]: 54% | Activity [5]: 94% | Activity [6]: 97% | Activity [7]: 73% | Activity [8]: 92% | Activity [9]: 82% | Activity [10]: 94%

COc1cc2ncnc(N[C@H](C)c3cccc4ccccc34)c2cc1OC
Activity [1]: 100% | Activity [2]: 79% | Activity [3]: 100% | Activity [4]: 86% | Activity [5]: 51% | Activity [6]: 88% | Activity [7]: 100% | Activity [8]: 97% | Activity [9]: 13% | Activity [10]: 100%
